Test results reported in patent publication US4444771A, “Azeto triazolo pyrazine β-lactam antibacterial agents” (Beecham Group Limited, priority 1980, dated 1984).
Where a name gives a salt, the structure may show the parent alone.

Legend:
Type in all cases: cell-based
S. typhimurium = assay: Antibacterial activity, minimum inhibitory concentration, S. typhimurium; settings: Salmonella enterica, serial dilution, DST agar + 10% horse blood, 10^-4 dilution inoculum, 37°, 18 h
Procedure: (§1) Minimum Inhibitory Concentration μg/ml^a
(§2) ^a Determined by serial dilution on DST agar containing 10% horse
(§3) blood using an inoculum of 0.001 ml of a 10^-2 dilution for
(§4) Grampositive bacteria or a 10^-4 dilution for Gramnegative organisms.
(§5) MIC values were read after incubation at 37° for eighteen hours.

E. coli = assay: Antibacterial activity, minimum inhibitory concentration, E. coli; settings: Escherichia coli, serial dilution, DST agar + 10% horse blood, 10^-4 dilution inoculum, 37°, 18 h
Procedure: as §1, §2, §3, §4, §5

S. faecalis = assay: Antibacterial activity, minimum inhibitory concentration, S. faecalis; settings: Enterococcus faecalis, serial dilution, DST agar + 10% horse blood, 10^-2 dilution inoculum, 37°, 18 h
Procedure: as §1, §2, §3, §4, §5

S. aureus Russell = assay: Antibacterial activity, minimum inhibitory concentration, S. aureus Russell; settings: Staphylococcus aureus; S. aureus Russell (lactamase-producing benzylpenicillin-resistant strain); serial dilution, DST agar + 10% horse blood, 10^-2 dilution inoculum, 37°, 18 h
Procedure: as §1, §2, §3, §4, §5
^b lactamase-producing benzylpenicillinresistant strain.

P. mirabilis = assay: Antibacterial activity, minimum inhibitory concentration, P. mirabilis; settings: Proteus mirabilis, serial dilution, DST agar + 10% horse blood, 10^-4 dilution inoculum, 37°, 18 h
Procedure: as §1, §2, §3, §4, §5

S. aureus Oxford = assay: Antibacterial activity, minimum inhibitory concentration, S. aureus Oxford; settings: Staphylococcus aureus, serial dilution, DST agar + 10% horse blood, 10^-2 dilution inoculum, 37°, 18 h
Procedure: as §1, §2, §3, §4, §5

B. subtilis = assay: Antibacterial activity, minimum inhibitory concentration, B. subtilis; settings: Bacillus subtilis, serial dilution, DST agar + 10% horse blood, 10^-2 dilution inoculum, 37°, 18 h
Procedure: as §1, §2, §3, §4, §5

K. aerogenes = assay: Antibacterial activity, minimum inhibitory concentration, K. aerogenes; settings: Klebsiella aerogenes, serial dilution, DST agar + 10% horse blood, 10^-4 dilution inoculum, 37°, 18 h
Procedure: as §1, §2, §3, §4, §5

S. pyogenes = assay: Antibacterial activity, minimum inhibitory concentration, S. pyogenes; settings: Streptococcus pyogenes, serial dilution, DST agar + 10% horse blood, 10^-2 dilution inoculum, 37°, 18 h
Procedure: as §1, §2, §3, §4, §5

S. pneumoniae = assay: Antibacterial activity, minimum inhibitory concentration, S. pneumoniae; settings: Streptococcus pneumoniae, serial dilution, DST agar + 10% horse blood, 10^-2 dilution inoculum, 37°, 18 h
Procedure: as §1, §2, §3, §4, §5

| SMILES | MIC (S. typhimurium) [µg/mL] | MIC (E. coli) [µg/mL] | MIC (S. faecalis) [µg/mL] | MIC (S. aureus Russell) [µg/mL] | MIC (P. mirabilis) [µg/mL] | MIC (S. aureus Oxford) [µg/mL] | MIC (B. subtilis) [µg/mL] | MIC (K. aerogenes) [µg/mL] | MIC (S. pyogenes) [µg/mL] | MIC (S. pneumoniae) [µg/mL] |
| --- | --- | --- | --- | --- | --- | --- | --- | --- | --- | --- |
| CC1=C(C(=O)O)N2C(=O)[C@H](NC(=O)COc3ccccc3)[C@@H]2c2cnnn21 (relative stereo) [Compound 15, (4bRS,5RS) 5,6-Dihydro-9-methyl-6-oxo-5-phenoxyacetamido-4bH-azeto-[2,1-c]v-triazolo-[1,5-a]-pyrazine-8-carboxylic acid] | > 100 | > 100 | > 100 | 100 | > 100 | 25 | 5 | > 100 | 5 | 2.5 |
| CC1=C(C(=O)O)N2C(=O)[C@H](NC(=O)C(C(=O)Oc3ccccc3)c3ccccc3)[C@@H]2c2cnnn21 (relative stereo) [Compound 22, (4bRS,5RS) 5,6-Dihydro-9-methyl-6-oxo-5-[DL-α-phenoxycarbonylphenylacetamido]-4bH-azeto[2.1-c]-v-triazolo[1.5-a]-pyrazine-8-carboxylic acid] | 50 | 100 | > 100 | > 100 | 100 | > 100 | 100 | > 100 | – | – |
| CC(=O)N[C@H]1C(=O)N2C(C(=O)O)=C(C)n3nncc3[C@@H]12 (relative stereo) [Compound 35, (4bRS,5RS) 5-Acetamido-5,6-dihydro-9-methyl-6-oxo-4bH-azeto-[2,1-c]-v-triazolo-pyrazine-8-carboxylic acid] | 100 | > 100 | > 100 | > 100 | > 100 | 100 | 5 | > 100 | 2.5 | 5 |
| CC1=C(C(=O)O)N2C(=O)[C@H](NC(=O)Cc3cccs3)[C@@H]2c2cnnn21 (relative stereo) [Compound 55, (4bRS,5RS) 5,6-Dihydro-9-methyl-6-oxo-5-(2-thienylacetamido)-4bH-azeto-[2,1-c]-v-triazolo-[1,5-a]-pyrazine-8-carboxylic acid, p-toluidine salt)] | – | – | 25 | 100 | 10 | 10 | 0.5 | 100 | 0.2 | 2.5 |
| CC1=C(C(=O)O)N2C(=O)C(NC(=O)[C@H](N)c3ccccc3)C2c2cnnn21 (stereo partly drawn) [Compound 28, (4bRS,5RS)-5,6-Dihydro-9-methyl-6-oxo-5-D-α-phenylglycylamino-4bH-azeto-[2,1-c]-v-triazolo[1,5-a]pyrazine-8-carboxylic acid, p-toluidine salt] | > 100 | > 100 | > 100 | > 100 | > 100 | 100 | 10 | > 100 | 2.5 | 10 |
| CC1=C(C(=O)O)N2C(=O)[C@H](NC(=O)[C@H](O)c3ccccc3)[C@@H]2c2cnnn21 [Compound 39, (4bR,5R) 5,6-Dihydro-5-D-α-hydroxyphenylacetamido-9-methyl-6-oxo-4bH-azeto-[2,1-c]-v-triazolo-[1,5-a]-pyrazine-8-carboxylic acid] | > 100 | > 100 | > 100 | > 100 | > 100 | > 100 | 100 | > 100 | > 100 | > 100 |
| CC1=C(C(=O)O)N2C(=O)[C@@H](NC(=O)[C@H](O)c3ccccc3)[C@H]2c2cnnn21 [Compound 40, (4bS,5S)-5,6-Dihydro-5-D-α-hydroxyphenylacetamido-9-methyl-6-oxo-4bH-azeto-[2,1-c]-v-triazolo-[1,5-a]-pyrazine-8-carboxylic acid] | 25 | > 100 | 100 | 100 | 10 | 25 | 0.5 | 100 | 50 | ≤ 0.2 |
| CC1=C(C(=O)O)N2C(=O)[C@@H](NC(=O)COc3ccccc3)[C@H]2c2cnnn21 [Compound 42, (4bS,5S)-5,6-Dihydro-9-methyl-6-oxo-5-phenoxyacetamido-4bH-azeto-[2,1-c]-v-triazolo-[1,5-a]-pyrazine-8-carboxylic acid] | > 50 | > 50 | 50 | > 50 | > 50 | – | 0.5 | > 50 | 2.5 | 5 |
